Test results as given in patent publication US20050014734A1 (Genovate Biotechnology Co., Ltd., priority 2003, published 2005).
“Also recorded” adds a separate entry of the source. Like-named read-outs stand apart in the source and are kept apart here.

Columns and labels:
[1] = oral administration; cited from earlier work
[2] = polymorph; cited from earlier work
IL-10 = assay: Serum IL-10 by ELISA in randomized, double-blind, placebo-controlled study in women with active SLE; assay type: in vivo, human
Experimental: (§1) Baseline prednisone (less than 10 mg/day) and other concomitant SLE medications were held constant. The serum levels of cytokines including IL-1, IL-2, interferon-γ, IL-4, and IL-10 were determined by ELISA. The mean change from baseline to 24 weeks of therapy was analyzed. See, below.
(§2) See, Chang et al., Arthritis Rheum., 2002, 46(11):2924-27. The subjects enrolled in the study were adult women with SLE according to American College of Rheumatology (ACR) criteria (see, e.g., Tan, et al., Arthritis Rheum., 1982, 25:1271-7) and who were receiving a prednisone dose (or its corticosteroid equivalent) of 1 to 10 mg/day at the time they entered the study. […]
(§3) Serum testosterone, estradiol and cytokine profiles were measured at baseline and at last visit (i.e., after 24 weeks). Different serum cytokines including […], IL-2, IFN-γ, IL-4, and […] in the subjects were measured using ELISA kits (R&D, Minneapolis, Minn.) according to the manufacturer's instructions.
(§4) Comparisons between groups were done through an independent t-test, while comparisons within groups were done through a paired t-test. All statistical tests were evaluated at a 0.05 level of significance.

Th2 cells = Th2 cells stimulated by retrovirus infection; cited from earlier work
IL-1β = assay: Serum IL-1β by ELISA in the same SLE study; assay type: in vivo, human; conditions: after 24 weeks of 200 mg/day DHEA orally, mean ± SD, n = 15, before treatment 9.94 ± 8.92
Experimental: as §1, §2, §3, §4

[3] = test system: NZB/NZW mouse model of SLE; conditions: cited from earlier work
[4] = test system: peripheral blood mononuclear cells (PBMCs) from adult male lupus patients; conditions: pre-incubation with DHEA, concanavalin A stimulated PBMCs; cited from earlier work
[5] = test system: human marrow and mononuclear cells; conditions: in vitro; cited from earlier work
[6] = test system: patients with mild to moderate SLE; conditions: cited from earlier work
estradiol = assay: Hormone determination: serum estradiol in SLE study; assay type: in vivo, human; conditions: 200 mg/day DHEA, 24 weeks
Experimental: See, Chang et al., Arthritis Rheum., 2002, 46(11):2924-27. The subjects enrolled in the study were adult women with SLE according to American College of Rheumatology (ACR) criteria (see, e.g., Tan, et al., Arthritis Rheum., 1982, 25:1271-7) and who were receiving a prednisone dose (or its corticosteroid equivalent) of 1 to 10 mg/day at the time they entered the study. Subjects selected for the study had to have active SLE, as defined by a Systemic Lupus Activity Measure (SLAM) score of ≧7, see, e.g., Liang, et al., Arthritis Rheum., 1989, 32:1107-18, and a baseline Systemic Lupus Erythematosus Disease Activity Index (SLEDAI) score ≧2. See, Bombardier, et al., Arthritis Rheum., 1992, 35:630-40.
Subjects that were under treatment with dydroxychloroquine, azathioprine, methotrexate, or cyclophosphamide or a combination thereof, had to have been on a stable regimen with no change in dose and drug combination for at least 6 weeks prior to entry into the study. Subjects who were receiving androgens, immunoglobulins, cyclosporine A, or other immunosuppressive agents (except those noted) were excluded from the study.
as §3

[7] = 200 mg/day for 12 months, 381 women with mild/moderate SLE
[8] = oral daily doses of 200 mg, mild to moderate SLE, van Vollenhoven et al.

C[C@]12CC[C@H](O)CC1=CC[C@@H]1[C@@H]2CC[C@]2(C)C(=O)CC[C@@H]12 [DHEA form II, dehydroepiandrosterone]
Rate of absorption [1]: rapid rate of absorption (greater than the form I polymorph) | Stability [2]: stable under typical ambient conditions

C[C@]12CC[C@H](O)CC1=CC[C@@H]1[C@@H]2CC[C@]2(C)C(=O)CC[C@@H]12 [DHEA form I, dehydroepiandrosterone]
Stability [2]: highly stable

C[C@]12CC[C@H](O)CC1=CC[C@@H]1[C@@H]2CC[C@]2(C)C(=O)CC[C@@H]12 [DHEA, dehydroepiandrosterone]
Effect on IL-10 level (in words) (IL-10; 200 mg/day DHEA for 24 weeks, women with SLE, from baseline): significant reduction; also recorded: significant IL-10 suppression | IL-10 after treatment (IL-10; serum, last visit after 24 weeks of 200 mg/day DHEA orally, mean ± SD, n = 15, before treatment 9.21 ± 6.75, p=0.045 vs placebo, p=0.029 vs baseline): 1.89 ± 1.47 pg/mL | Production of IL-6 and tumor necrosis factor alpha (Th2 cells): suppressed the production of cytokines IL-6 and tumor necrosis factor alpha | IL-1β after treatment (IL-1β): 9.20 ± 6.49 pg/mL | Onset of disease and mortality [3]: significantly delayed onset of disease and a reduction in mortality | IL-4 production [4]: reduced the IL-4 production | Secretion of IL-6 [5]: reduce secretion of IL-6 | Bone mineral density [6, 7]: prevented loss of bone mineral density in a significantly greater proportion of patients than placebo | SLE disease and symptoms [6, 7]: improved or stabilized SLE disease and its symptoms without clinical deterioration | Prednisone reduction ([6]; 200 mg/day, women with active lupus, phase II/III, Petri et al. 2002): enabled prednisone reduction to physiologic levels in a significantly greater proportion of patients than placebo | Steroid-sparing effect and flares [6, 8]: may have steroid-sparing effects and reduce flares | Tolerability [6, 8]: well-tolerated | Tolerability ([6]; women with lupus, Chang et al. 2002): well-tolerated | Estradiol change at last visit, mean (estradiol; baseline mean 123): -48 pg/mL | Estradiol change at last visit, median (estradiol; baseline median 104): -39 pg/mL | Median decrease in estradiol (estradiol; placebo 31.5): 39.3 pg/mL
